The text below walks through data of patent US4617269A, “Process for the preparation of fructosyl disaccharides” (priority 1983, dated 1986).

By Km is commonly meant the concentration of substrate that gives half-maximal velocity.

A short description of test [1]: Sweetness relative to sucrose.
For test [2], the system named is Dedonder's levan sucrase from B.subtilis BS5 (a clone from B.subtilis var. nigra). Particulars: cited from earlier work.

Each structure is given as a SMILES string. Like-named read-outs stand apart in the source and are kept apart here.

As for `C[C@H]1O[C@H](O[C@]2(CCl)O[C@H](CCl)[C@@H](O)[C@@H]2O)[C@H](O)[C@@H](O)[C@H]1Cl` [4,1',6'-trichloro-4,6,1',6'-tetradeoxygalactosucrose], in test [1] (8% solution), the “sweetness, times as sweet as sucrose” value turned out to be 400 times as sweet as sucrose.

As to `O[C@@H]1[C@@H](O)[C@@H](O[C@]2(CCl)O[C@H](CCl)[C@@H](O)[C@@H]2O)OC[C@@H]1Cl` [Example 8], in test [1] (in a 2% solution), the “sweetness, times as sweet as sucrose” value is 25 times as sweet as sucrose.

On to `OC[C@H]1O[C@H](O[C@]2(CO)O[C@H](CO)[C@@H](O)[C@@H]2O)[C@H](O)[C@@H](O)[C@H]1O` [Galactosucrose, β-D-fructofuranosyl (2→1)-D-galactopyranoside], for which, in test [1] (only a trace of sweetness), the sweetness is given as 10-15 % of sucrose.

Take `OC[C@H]1O[C@@](CO)(O[C@H]2O[C@H](CO)[C@@H](O)[C@H](O)[C@H]2O)[C@@H](O)[C@@H]1O` [sucrose, β-D-fructofuranosyl α-D-glucopyranoside]: the Km in test [2] (Dedonder (loc.cit.) BS5 strain enzyme, read-out: Km (sucrose), quoted) is ~20 mM; in test [2] (reported for Dedonder's levan sucrase, read-out: Km for sucrose), 20 mM.
